Measured values: PubChem BioAssay AID602284 (Broad Institute, 2012)
Calls of active or inactive are those of the source.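 How the source made its calls: active means every test run fits a half-maximal inhibitory dose no higher than twice its top dose tested; inconclusive means runs disagree, flat partial inhibition, or poor curve fit; inactive means the rest.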

biological target: Cyclin-dependent kinase 5 activator 1 (Homo sapiens) + Cyclin-dependent kinase 5 (Homo sapiens) (UniProt Q15078+Q00535); test: CDK5/p35 kinase inhibitors, dose response, biochemical, ADP-Glo luminescence, dry powder samples (AID 602284); details: histone H1 peptide
Sequence (Q00535 whole entry, looked up): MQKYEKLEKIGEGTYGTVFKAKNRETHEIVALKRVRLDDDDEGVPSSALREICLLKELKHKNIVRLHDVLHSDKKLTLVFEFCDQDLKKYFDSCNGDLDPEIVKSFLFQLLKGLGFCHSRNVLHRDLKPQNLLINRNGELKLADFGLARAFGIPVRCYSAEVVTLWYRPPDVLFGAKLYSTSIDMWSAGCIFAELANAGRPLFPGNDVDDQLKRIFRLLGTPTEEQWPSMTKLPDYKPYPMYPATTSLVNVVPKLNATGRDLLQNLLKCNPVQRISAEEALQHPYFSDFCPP
Sequence (Q15078 whole entry, looked up): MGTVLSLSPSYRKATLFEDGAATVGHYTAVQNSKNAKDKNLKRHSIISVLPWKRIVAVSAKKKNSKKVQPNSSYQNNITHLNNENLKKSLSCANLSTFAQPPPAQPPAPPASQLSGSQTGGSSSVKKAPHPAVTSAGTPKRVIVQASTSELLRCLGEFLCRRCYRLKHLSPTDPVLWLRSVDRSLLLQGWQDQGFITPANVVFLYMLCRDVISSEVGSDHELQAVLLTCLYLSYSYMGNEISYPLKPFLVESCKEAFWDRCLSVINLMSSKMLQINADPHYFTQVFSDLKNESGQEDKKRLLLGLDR

| Structure (SMILES) | AC50 [µM] |
| --- | --- |
| CCCn1c(NC(=O)c2cccc(S(=O)(=O)N(CC)CC)c2)nc2ccccc21 | 2.95 |
| CC(C)(C)n1c(NC(=O)c2cccc(S(C)(=O)=O)c2)nc2ccccc21 | 12.3 |
| CCCn1c(NC(=O)c2cccc(S(=O)(=O)N(C)C)c2)nc2ccccc21 | 10.2 |
| CCn1c(NC(=O)c2cccc(S(=O)(=O)NC)c2)nc2ccccc21 | 29.1 |
| CCCn1c(NC(=O)c2cccc(S(=O)(=O)N3CCCCC3)c2)nc2ccccc21 | 13.5 |

same assay, conditions: histone H1 peptide, at 0.38 µM (top of the series)

| Structure (SMILES) | activity change, negative = inhibition |
| --- | --- |
| c1ccc(N2CCNCC2)nc1 | inactive |

same assay, conditions: histone H1 peptide, at 10 µM (top of the series)

| Structure (SMILES) | activity change, negative = inhibition |
| --- | --- |
| O=C(c1ccccc1)N1CCN(c2ccccn2)CC1 | inactive |

same assay, conditions: histone H1 peptide, at 30 µM (top of the series)

| Structure (SMILES) | activity change, negative = inhibition |
| --- | --- |
| N#Cc1cccnc1N1CCN(C(=O)c2ccc(Cl)cc2)CC1 | inactive |
| O=C(c1ccccc1Cl)N1CCN(c2ccccn2)CC1 | inactive |
| Cc1cccc(N2CCN(C(=O)c3ccc(Cl)cc3)CC2)n1 | inactive |
| O=C(c1ccc(Cl)cc1)N1CCN(c2ncccc2C(F)(F)F)CC1 | inactive |
| Cc1ccc(N2CCN(C(=O)c3ccc(Cl)cc3)CC2)nc1 | inactive |
| N#Cc1ccc(N2CCN(C(=O)c3ccc(Cl)cc3)CC2)nc1 | inactive |
| COc1cccc(C(=O)N2CCN(c3ccccn3)CC2)c1 | inactive |
| COc1cc(C(=O)N2CCN(c3ccccn3)CC2)cc(OC)c1OC | inactive |
| CCCn1c(NC(=O)c2ccc(OC)c(S(=O)(=O)N3CCCC3)c2)nc2ccccc21 | inactive |
| O=C(c1cccc(Cl)c1)N1CCN(c2ccccn2)CC1 | inactive |
| Cc1ccnc(N2CCN(C(=O)c3ccc(Cl)cc3)CC2)c1 | inactive |
| COc1cc(C(=O)N2CCN(c3ccccc3)CC2)cc(OC)c1OC | inactive |
| O=C(c1ccc(Cl)cc1)N1CCN(c2ccc(C(F)(F)F)cn2)CC1 | inactive |
| CCCCC(=O)N1CCN(c2ccccn2)CC1 | inactive |
| N#Cc1ccc(C(=O)N2CCN(c3ccccn3)CC2)cc1 | inactive |
| COc1ccc(C(=O)N2CCN(c3ccccn3)CC2)cc1 | inactive |
| COCCC(=O)N1CCN(c2ccccn2)CC1 | inactive |
| COc1cccnc1N1CCN(C(=O)c2ccc(Cl)cc2)CC1 | inactive |
| COc1ccnc(N2CCN(C(=O)c3ccc(Cl)cc3)CC2)c1 | inactive |
| O=C(C1CCCCC1)N1CCN(c2ccccn2)CC1 | inactive |
| CCOc1cc(C(=O)N2CCN(c3ccccn3)CC2)cc(OCC)c1OCC | inactive |
| O=C(c1ccc(Cl)cc1)N1CCN(c2ccccn2)CC1 | inactive |
| O=C(c1ccc(F)cc1)N1CCN(c2ccccn2)CC1 | inactive |
| Cc1ccc(C(=O)N2CCN(c3ccccn3)CC2)cc1 | inactive |
| CCCn1c(NC(=O)c2ccc(Cl)c(S(=O)(=O)N3CCCC3)c2)nc2ccccc21 | inactive |
| CC(C)C(=O)N1CCN(c2ccccn2)CC1 | inactive |
| O=C(c1ccc(Cl)cc1)N1CCN(c2cccc(C(F)(F)F)n2)CC1 | inactive |
